Broadly, the IC50 is the concentration at which inhibition is half-maximal.

The target in the first test is T1, G1 APOL1 (Homo sapiens, UniProt O14791, I384M/S342G).
T1 construct: expressed in transfected cells
T1 sequence (O14791 28-398 S342G/I384M): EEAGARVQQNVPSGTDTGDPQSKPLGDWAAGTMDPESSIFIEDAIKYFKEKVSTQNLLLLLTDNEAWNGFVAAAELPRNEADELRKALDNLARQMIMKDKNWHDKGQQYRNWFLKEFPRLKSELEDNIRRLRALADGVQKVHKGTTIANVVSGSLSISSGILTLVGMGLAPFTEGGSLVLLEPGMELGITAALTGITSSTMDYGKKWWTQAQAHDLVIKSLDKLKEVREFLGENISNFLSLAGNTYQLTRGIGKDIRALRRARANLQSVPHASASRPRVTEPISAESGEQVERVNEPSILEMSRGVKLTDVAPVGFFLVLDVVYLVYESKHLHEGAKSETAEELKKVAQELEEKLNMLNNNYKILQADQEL
Put plainly: Acute APOL1 Thallium Assay with inducible stable clones of HEK 293 cells. The format is cell-based. The following applies: HEK 293 T-Rex inducible stable clone expressing G1 APOL1; read-out: Thallium Assay (IC50). The text has this: Acute APOL1 Thallium Assay with Inducible Stable Clones of HEK 293 Cells
Apolipoprotein L1 (APOL1) proteins form potassium-permeable cation pores in the plasma membrane. APOL1 risk variants (G1 and G2) induce greater potassium flux than G0 in HEK293 cells. This assay exploits the permeability of thallium (T1+) through ligand-gated potassium channels. The dye produces a bright fluorescent signal upon binding to T1+ conducted through potassium channels. The intensity of the T1+ signal is proportional to the number of potassium channels in the open state. Therefore, it provides a functional indication of the potassium channel activities. During the initial dye-loading step, the T1+ indicator dye as an acetoxymethyl (AM) ester enters the cells through passive diffusion. Cytoplasm esterases cleave the AM ester and relieve its active thallium-sensitive form. The cells are then stimulated with T1+. The increase of fluorescence in the assay represents the influx of T1+ into the cell specifically through the potassium channel (i.e. through APOL1 pores), providing a functional measurement of potassium channel/pore activity. The Thallium assay is conducted with cells expressing G1 APOL1.
APOL1 Cell Line (HEK T-Rex Stable Inducible Cell Line)
• HEK T-Rex System • Tetracycline (Tet) inducible mammalian expression system. • Stably express the Tet repressor to regulate transcription. • Expression under the full-length CMV promoter. • APOL1 stable inducible cell line Clone used: G1 DC3.25 Tissue Culture Media Cell Culture Medium • DMEM+10% FBS+P/S+5 μg/mL blasticidin+1 μg/mL puromycin. • 500 mL DMEM+55 mL FBS+5 mL P/S+280 μL blasticidin S HCl (10 mg/mL)+56 μL puromycin (10 mg/mL). Cell Assay Medium • DMEM with 2% FBS+penicillin streptomycin. Reagents:
Instruments and Equipment • Nuaire cell culture hood, Cat. No. 540-600 • 37° C./5% CO2 incubator link to robotic arm, Liconic: STX110 • Molecular Devices FLIPR^Tetra High throughput cellular screening system, Cat. No. FT0324, Molecular Devices • ThermoFisher MultiDrop 384, Cat. No. 5840300 • Biotek Microfill, Cat. No. ASF1000A-4145 • BioRad TC10 cell counter, Cat. No. 145-0010 Assay Procedures Cells Scaled Up from Frozen Vials • APOL1 G1 3.25 (HEK293 T-Rex) frozen vials: 5 million cells per vial • Step 1, Day 1: Defrost frozen vial into T-225. • Step 2, Day 5: (when 85% confluent): Split one T-225 at 3×10^6 cells per flask. • Step 3, Day 8: Splits cells to set up for the assay plates as described below. Cell Culture
T-Rex APOL1 HEK cells are split twice per week to keep the confluence state below 85% of the culture flask surface area. Cells can be kept until passage 25.
• DMEM high glucose+10% FBS, +P/S, +5 μg/mL blasticidin, +1 μg/mL puromycin. • 500 mL DMEM, +55 mL FBS, +5 mL P/S, +280 μL blasticidin 10 mg/mL, +56 μL Puromycin 10 mg/mL. Assay Media • Opti-MEM reduced serum medium from Invitrogen. Day 1 Preparation of Cell Assay Plates • Culture medium is removed from the x cm^2 T-flask by aspiration. • The cell monolayer is rinsed with PBS 1× at room temperature. PBS is removed by aspiration. • Cells are trypsinized using Trypsin. • The flasks are incubated at room temperature for 2-3 minutes. • Complete DMEM medium is then added. Cell suspension is then transferred to a 50 mL Falcon polypropylene tube. • Cells are then counted using a BioRad TC10 cell counter and the required amount of cells are centrifuged at 1200 RPM for 5 minutes. Required amount is 1.3×10^6 cells/mL APOL1 T-Rex HEK cells. • The pellet is suspended in the assay medium. • Using the MultiDrop, add 20 μL to each well (corresponds to 26000 cells total per well) of a 384-well black, transparent, flat bottom Poly-D coated plate. • Tetracycline as prepared in the following section is added to the cells before plating to induce APOL1 expression. • Plates are left at room temperature for 20 to 30 minutes before incubation at 37° C. and 5% CO2. […]
As for `CC1(C)CCC(C(=O)N[C@H]2C[C@@H](c3c(-c4ccc(F)cc4)[nH]c4c(F)cc(F)cc43)C2)N1` (stereo partly drawn) [Compound 64], the IC50 is over 1000 nM. Same read-out and setting: the value for `O=C1CC(C(=O)N[C@H]2C[C@@H](c3c(-c4ccc(F)cc4)[nH]c4c(F)cc(F)cc43)C2)C(=O)N1` (stereo partly drawn) [Compound 65] was over 1000 nM; that for `N#CCC(=O)N[C@H]1C[C@@H](c2c(-c3ccc(F)cc3)[nH]c3c(F)cc(F)cc32)C1` [Compound 67] was over 1000 nM; that for `CC(F)(F)C(=O)N[C@H]1C[C@@H](c2c(-c3ccc(F)cc3)[nH]c3c(F)cc(F)cc32)C1` [Compound 68] was 250 to 1000 nM. On the same count and under the same terms, the value for `O=C1NCCC1C(=O)N[C@H]1C[C@@H](c2c(-c3ccc(F)cc3)[nH]c3c(F)cc(F)cc32)C1` (stereo partly drawn) [Compound 69] was over 1000 nM.

In the case of `O=C1CC(C(=O)N[C@H]2C[C@@H](c3c(-c4ccc(F)cc4)[nH]c4c(F)cc(F)cc43)C2)CC(=O)N1` [Compound 70], the half-inhibitory concentration (IC50) was over 1000 nM. On to `O=C(N[C@H]1C[C@@H](c2c(-c3ccc(F)cc3)[nH]c3c(F)cc(F)cc32)C1)C1COC1` [Compound 71], for which the IC50 is 250 to 1000 nM. On the same count and under the same terms, the value for `O=C1CC(CC(=O)N[C@H]2C[C@@H](c3c(-c4ccc(F)cc4)[nH]c4c(F)cc(F)cc43)C2)CC(=O)N1` [Compound 72] was over 1000 nM. For `O=C(N[C@H]1C[C@@H](c2c(-c3ccc(F)cc3)[nH]c3c(F)cc(F)cc32)C1)c1cn[nH]c1` [Compound 73], the IC50 was 250 to 1000 nM.

With `CC(C)(O)C(=O)N[C@H]1C[C@@H](c2c(-c3ccc(F)cc3)[nH]c3c(F)cc(F)cc32)C1` [Compound 74], the 50% inhibitory concentration (IC50) lay in the range of 250 to 1000 nM. On the same count and under the same terms, the value for `CNCCC(=O)N[C@H]1C[C@@H](c2c(-c3ccc(F)cc3)[nH]c3c(F)cc(F)cc32)C1` [Compound 75] was 250 to 1000 nM; that for `O=C(N[C@H]1C[C@@H](c2c(-c3ccc(F)cc3)[nH]c3c(F)cc(F)cc32)C1)C1(O)CC1` [Compound 76] was 250 to 1000 nM; that for `CC(C)(C)OC(=O)NCC(=O)N[C@H]1C[C@@H](c2c(-c3ccc(F)cc3)[nH]c3c(F)cc(F)cc32)C1` [Compound 78] was over 1000 nM. Same read-out and setting: the figure for `CCCS(=O)(=O)N[C@H]1C[C@@H](c2c(-c3ccc(F)cc3)[nH]c3c(F)cc(F)cc32)C1` [Compound 79, N-((1s,3s)-3-(5,7-difluoro-2-(4-fluorophenyl)-1H-indol-3-yl)cyclobutyl)propane-1-sulfonamide] is over 1000 nM; for `O=S(=O)(N[C@H]1C[C@@H](c2c(-c3ccc(F)cc3)[nH]c3c(F)cc(F)cc32)C1)c1c[nH]cn1` [Compound 80] it is over 1000 nM; for `Cn1cc(S(=O)(=O)N[C@H]2C[C@@H](c3c(-c4ccc(F)cc4)[nH]c4c(F)cc(F)cc43)C2)cn1` [Compound 81] it is over 1000 nM. Same read-out and setting: the figure for `CCS(=O)(=O)N[C@H]1C[C@@H](c2c(-c3ccc(F)cc3)[nH]c3c(F)cc(F)cc32)C1` [Compound 82] is over 1000 nM; for `O=S(=O)(N[C@H]1C[C@@H](c2c(-c3ccc(F)cc3)[nH]c3c(F)cc(F)cc32)C1)C1COC1` [Compound 83] it is over 1000 nM.

Take `O=S(=O)(N[C@H]1C[C@@H](c2c(-c3ccc(F)cc3)[nH]c3c(F)cc(F)cc32)C1)c1cn[nH]c1` [Compound 84]: the IC50 is over 1000 nM. Regarding `Cn1ccnc1S(=O)(=O)N[C@H]1C[C@@H](c2c(-c3ccc(F)cc3)[nH]c3c(F)cc(F)cc32)C1` [Compound 85], the half-maximal inhibitory concentration (IC50) is over 1000 nM.

As for `O=S(=O)(N[C@H]1C[C@@H](c2c(-c3ccc(F)cc3)[nH]c3c(F)cc(F)cc32)C1)C1CCOCC1` [Compound 86], the IC50 is over 1000 nM. Still for that read-out and setting: the value for `N#CCS(=O)(=O)N[C@H]1C[C@@H](c2c(-c3ccc(F)cc3)[nH]c3c(F)cc(F)cc32)C1` [Compound 87] was over 1000 nM. On the same count and under the same terms, the value for `O=C(N[C@H]1C[C@H](c2c(-c3ccc(F)cc3)[nH]c3c(F)cc(F)cc32)C1)OCc1ccccc1` [Compound 88] was over 1000 nM; that for `O=C1CCC(C(=O)N[C@H]2C[C@H](c3c(-c4ccc(F)cc4)[nH]c4c(F)cc(F)cc43)C2)CN1` (stereo partly drawn) [Compound 90] was over 1000 nM. Turning to `CN(C)CC(=O)N[C@H]1C[C@H](c2c(-c3ccc(F)cc3)[nH]c3c(F)cc(F)cc32)C1` [Compound 91], the 50% inhibitory concentration (IC50) is over 1000 nM. Same read-out and setting: the value for `O=C(N[C@H]1C[C@H](c2c(-c3ccc(F)cc3)[nH]c3c(F)cc(F)cc32)C1)C(O)C1CC1` (stereo partly drawn) [Compound 92] was 250 to 1000 nM; that for `CC(C)C(O)C(=O)N[C@H]1C[C@H](c2c(-c3ccc(F)cc3)[nH]c3c(F)cc(F)cc32)C1` (stereo partly drawn) [Compound 93] was 250 to 1000 nM; that for `CC1(C(=O)N[C@H]2C[C@H](c3c(-c4ccc(F)cc4)[nH]c4c(F)cc(F)cc43)C2)CC(=O)C1` [Compound 94] was 250 to 1000 nM. Still for that read-out and setting: the value for `O=C(CCO)N[C@H]1C[C@H](c2c(-c3ccc(F)cc3)[nH]c3c(F)cc(F)cc32)C1` [Compound 95] was under 250 nM.

In the case of `O=C(N[C@H]1C[C@H](c2c(-c3ccc(F)cc3)[nH]c3c(F)cc(F)cc32)C1)C(O)CO` (stereo partly drawn) [Compound 96], the half-inhibitory concentration (IC50) was in the range of 250 to 1000 nM. On to `O=C(CC1CC(F)(F)C1)N[C@H]1C[C@H](c2c(-c3ccc(F)cc3)[nH]c3c(F)cc(F)cc32)C1` [Compound 98], for which the half-inhibitory concentration (IC50) is over 1000 nM. The same measure, in the same setting: the value for `CS(=O)(=O)CCCC(=O)N[C@H]1C[C@H](c2c(-c3ccc(F)cc3)[nH]c3c(F)cc(F)cc32)C1` [Compound 99] was over 1000 nM; that for `O=C(CC1CCOCC1)N[C@H]1C[C@H](c2c(-c3ccc(F)cc3)[nH]c3c(F)cc(F)cc32)C1` [Compound 100] was over 1000 nM.

In the case of `O=C(CC1CS(=O)(=O)C1)N[C@H]1C[C@H](c2c(-c3ccc(F)cc3)[nH]c3c(F)cc(F)cc32)C1` [Compound 101], the IC50 was over 1000 nM. Same read-out and setting: the value for `CN(CC(=O)N[C@H]1C[C@H](c2c(-c3ccc(F)cc3)[nH]c3c(F)cc(F)cc32)C1)S(C)(=O)=O` [Compound 103] was over 1000 nM; that for `CN1CCCC(CC(=O)N[C@H]2C[C@H](c3c(-c4ccc(F)cc4)[nH]c4c(F)cc(F)cc43)C2)C1` (stereo partly drawn) [Compound 104] was over 1000 nM; that for `Cn1ccc(CC(=O)N[C@H]2C[C@H](c3c(-c4ccc(F)cc4)[nH]c4c(F)cc(F)cc43)C2)n1` [Compound 106] was 250 to 1000 nM.

Take `CS(=O)(=O)NCC(=O)N[C@H]1C[C@H](c2c(-c3ccc(F)cc3)[nH]c3c(F)cc(F)cc32)C1` [Compound 107]: the concentration for half-maximal inhibition (IC50) is over 1000 nM.

The same test, now with this note: Thallium Assay (IC50), HEK 293 T-Rex inducible stable clone expressing G1 APOL1.
`N[C@H]1C[C@H](c2c(-c3ccc(F)cc3)[nH]c3c(F)cc(F)cc32)C1` [Compound 89, (1r,3r)-3-[5,7-difluoro-2-(4-fluorophenyl)-1H-indol-3-yl]cyclobutanamine] had a concentration for half-maximal inhibition (IC50) of under 250 nM.

These data come from US12281102B2, “Inhibitors of APOL1 and methods of using same” (Vertex Pharmaceuticals Incorporated, priority 2020, dated 2025).
